These are literature values, as cited in patent US11399558B2, “Rebaudioside-D containing sweetener compositions” (Heartland Consumer Products, LLC, priority 2015, dated 2022).

Where two headings read alike, the source gives them in different places.

The conditions of series [1]: Chang et al. 1983.
The conditions of series [2]: for Solubility in ethanol: ethanol / alcohol.
The conditions of series [3]: heat, acid, and alkaline conditions.
The conditions of series [4]: on a weight basis.
For series [5] the following is noted: absorbed into the bloodstream in the small intestine.

As to `C=C1C[C@@]23CC[C@H]4[C@@](C)(CCC[C@@]4(C)C(=O)O[C@@H]4O[C@H](CO)[C@@H](O)[C@H](O)[C@H]4O)[C@@H]2CC[C@]1(O[C@@H]1O[C@H](CO)[C@@H](O)[C@H](O[C@@H]2O[C@H](CO)[C@@H](O)[C@H](O)[C@H]2O)[C@H]1O[C@@H]1O[C@H](CO)[C@@H](O)[C@H](O)[C@H]1O)C3` [Rebaudioside A], the “Stability in carbonated beverages” value in series [1] was “heat and pH stability”.
As for `C=C1C[C@@]23CC[C@H]4[C@@](C)(CCC[C@@]4(C)C(=O)O[C@@H]4O[C@H](CO)[C@@H](O)[C@H](O)[C@H]4O)[C@@H]2CC[C@]1(O[C@@H]1O[C@H](CO)[C@@H](O)[C@H](O)[C@H]1O[C@@H]1O[C@H](CO)[C@@H](O)[C@H](O)[C@H]1O)C3` [Stevioside], the “Stability in carbonated beverages” value in series [1] is “heat and pH stability”.
As for `OC[C@@H](O)[C@@H](O)CO` [Eryrithritol, 1,2,3,4-butanetetrol], in series [2] (DMSO), the “Solubility in DMSO” value was “Insoluble”. In series [2], the Solubility in ethanol entry is given as “Slight” and the Solubility in water entry was “Soluble”. For the same compound, in series [2] (listed as Erythritol), the Solubility in ethanol entry is recorded as “slightly soluble” and the Solubility in water entry is listed as “water soluble”. The Stability entry in series [3] is listed as “stable”. Besides, in series [4], the “Sweetness relative to sucrose (cane sugar)” value is given as “about 70%”. Moreover, in series [5], the Excretion result is “for the most part is excreted unchanged in the urine”.
